Like-named read-outs stand apart in the source and are kept apart here.

Experiment [1] relates to LacAnc100. The following applies: read-out: LacAnc100; room temperature; 100 mM sodium phosphate/citrate pH 4.0; air O2 as co-substrate.
Experiment [2] relates to LacAnc98. Conditions: read-out: LacAnc98; room temperature; 100 mM sodium phosphate/citrate pH 4.0; air O2 as co-substrate.
For experiment [3], the system named is LacAnc98. As to the kind of experiment: spectrophotometric steady-state kinetics, […] nm. It is filed as biochemical, synthetic construct. Conditions: room temperature; 100 mM sodium phosphate/citrate pH 5.0; air O2 as co-substrate.
In experiment [4] the target is T1, OB-1 (basidiomycete PM1, UniProt Q12571, V183A/H229Y/S245G/A260P/D302E/S447N/A482T, form not given).
T1 construct: N-terminal extension from leader processing (EAEA site) possible
T1 sequence (Q12571 entry or part of it V183A/H229Y/S245G/A260P/D302E/S447N/A482T, form open): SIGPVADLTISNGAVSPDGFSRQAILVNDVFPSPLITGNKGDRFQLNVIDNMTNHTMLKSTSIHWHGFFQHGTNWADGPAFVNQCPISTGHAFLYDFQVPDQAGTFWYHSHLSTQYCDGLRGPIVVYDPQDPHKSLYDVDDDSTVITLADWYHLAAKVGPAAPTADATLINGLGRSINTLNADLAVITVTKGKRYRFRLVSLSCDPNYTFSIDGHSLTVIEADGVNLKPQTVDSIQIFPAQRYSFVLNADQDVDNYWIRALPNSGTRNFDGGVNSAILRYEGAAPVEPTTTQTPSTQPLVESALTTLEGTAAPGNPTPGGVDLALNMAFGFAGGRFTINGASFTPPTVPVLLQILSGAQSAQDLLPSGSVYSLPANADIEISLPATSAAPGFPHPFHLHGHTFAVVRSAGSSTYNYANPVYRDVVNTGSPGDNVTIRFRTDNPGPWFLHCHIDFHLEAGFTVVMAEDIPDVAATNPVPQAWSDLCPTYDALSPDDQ
Description: spectrophotometric steady-state kinetics, […] nm. The following applies: room temperature; 100 mM sodium phosphate/citrate pH 5.0; air O2 as co-substrate. Type of experiment: biochemical.

The subject of experiment [5] is LacAnc100. As to the kind of experiment: spectrophotometric steady-state kinetics, […] nm. It is filed as biochemical, synthetic construct. Conditions: room temperature; 100 mM sodium phosphate/citrate pH 5.0; air O2 as co-substrate.
For experiment [6], the system named is LacAnc98. Description: spectrophotometric steady-state kinetics, […] nm. It is filed as biochemical, synthetic construct. Conditions: room temperature; 100 mM sodium phosphate/citrate pH 5.0; air O2 as co-substrate. The source holds these as a separate data set.
Experiment [7] deals with T1, OB-1. As to the kind of experiment: spectrophotometric steady-state kinetics, […] nm. It is filed as biochemical. Conditions: room temperature; 100 mM sodium phosphate/citrate pH 5.0; air O2 as co-substrate. This is another data set of the same source.
Experiment [8] has as its system LacAnc100. Description: spectrophotometric steady-state kinetics, […] nm. Type of experiment: biochemical, synthetic construct. The following applies: room temperature; 100 mM sodium phosphate/citrate pH 5.0; air O2 as co-substrate. The source holds these as a separate data set.
Experiment [9] deals with LacAnc100. Description: spectrophotometric steady-state kinetics, […] nm. It is filed as biochemical, synthetic construct. Conditions: room temperature; 100 mM sodium phosphate/citrate pH 5.0; air O2 as co-substrate. The source holds these as a separate data set.
Experiment [10] deals with T1, OB-1. As to the kind of experiment: spectrophotometric steady-state kinetics, […] nm. Type of experiment: biochemical. The following applies: room temperature; 100 mM sodium phosphate/citrate pH 5.0; air O2 as co-substrate. This is another data set of the same source.
The test system of experiment [11] is LacAnc98. As to the kind of experiment: spectrophotometric steady-state kinetics, […] nm. Type of experiment: biochemical, synthetic construct. Conditions: room temperature; 100 mM sodium phosphate/citrate pH 5.0; air O2 as co-substrate. This is another data set of the same source.

On to `CCn1c(=NN=c2sc3cc(S(=O)(=O)O)ccc3n2CC)sc2cc(S(=O)(=O)O)ccc21` [ABTS], for which the Km worked out at 60 ± 1 µM with LacAnc100 [1] and 69 ± 2 µM in the experiment on LacAnc98 [2].

Take `COc1cccc(OC)c1O` [DMP]: the Km came out at 420 ± 20 µM in the experiment on LacAnc98 [3], 150 ± 10 µM on OB-1 [4] and 500 ± 20 µM with LacAnc100 [5].

As to `COc1ccccc1O` [Guaiacol], the figures for the Km in the experiment with LacAnc98 [6], at OB-1 [7] and in the experiment on LacAnc100 [8] were 8700 ± 300 µM, 2600 ± 400 µM and 6700 ± 700 µM, respectively.

Turning to `COc1cc(/C=C/C(=O)O)cc(OC)c1O` [Sinapic acid], the Km was determined as 330 ± 70 µM in the experiment with LacAnc100 [9], 320 ± 20 µM on OB-1 [10] and 230 ± 40 µM with LacAnc98 [11].

(Values after paper PMC7357490, “Ancestral Resurrection and Directed Evolution of Fungal Mesozoic Laccases” (Applied and Environmental Microbiology, 2020).)
